US9233979B2, “Compounds that are ERK inhibitors” (Merck Sharp & Dohme Corp., priority 2012, dated 2016)

target: phosphorylated active hERK2 enzyme (Homo sapiens (Human), UniProt P28482); test: Active Human ERK2 (hERK2) Activity Assay (IMAP-FP); assay type: biochemical; conditions: Table 6, 0.5 nM hERK2, 30 μM ATP, 10 point titration, read-out: AERK2 IC50
In short: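 IMAP detection beads in buffer with 24 mM NaCl stopped the reaction, and fluorescence polarization was read after 60 min binding.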

phosphorylated active hERK2 enzyme, sequence (P28482 whole entry): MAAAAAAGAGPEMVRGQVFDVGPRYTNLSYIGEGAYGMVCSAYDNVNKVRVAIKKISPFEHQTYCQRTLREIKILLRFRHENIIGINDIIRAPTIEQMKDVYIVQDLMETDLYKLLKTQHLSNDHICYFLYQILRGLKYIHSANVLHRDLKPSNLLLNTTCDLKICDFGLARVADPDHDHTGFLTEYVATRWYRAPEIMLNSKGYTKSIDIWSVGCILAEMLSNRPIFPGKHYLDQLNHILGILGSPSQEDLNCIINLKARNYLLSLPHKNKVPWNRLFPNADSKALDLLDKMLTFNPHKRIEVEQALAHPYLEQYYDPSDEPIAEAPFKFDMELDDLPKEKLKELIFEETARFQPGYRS

Compound | IC50 [nM]
C[C@@H](NC(=O)Nc1cc2[nH]nc(NCCN3CCOCC3)c2cn1)c1ccccc1 [Example 194, 1-{3-[(2-morpholin-4-ylethyl)amino]-1H-pyrazolo[4,3-c]-pyridin-6-yl}-3-[(1R)-1-phenylethyl]urea] | 28.4
C[C@@H](NC(=O)Nc1cc2[nH]nc(NC3CCC(F)(F)CC3)c2cn1)c1ccccc1 [Example 195, 1-{3-[(4,4-difluorocyclohexyl)amino]-1H-pyrazolo[4,3-c]-pyridin-6-yl}-3-[(1R)-1-phenylethyl]urea] | 10.2
C[C@@H](NC(=O)Nc1cc2[nH]nc(NCC3CCCCO3)c2cn1)c1ccccc1 (stereo partly drawn) [Example 196, 1-[(1R)-1-phenylethyl]-3-{3-[(tetrahydro-2H-pyran-2-yl-methyl)amino]-1H-pyrazolo[4,3-c]-pyridin-6-yl}urea] | 27.9
COC[C@@H](NC(=O)Nc1cc2[nH]nc(NC3COC3)c2cn1)c1ccccc1 [Example 198, 1-[(1S)-2-methoxy-1-phenylethyl]-3-[3-(oxetan-3-yl-amino)-1H-pyrazolo[4,3-c]-pyridin-6-yl]urea] | 0.5
Cc1nnsc1C(=O)Nc1n[nH]c2cc(NC(=O)N[C@H](C)c3ccccc3)ncc12 [Example 200, 4-methyl-N-[6-({[(1R)-1-phenylethyl]-carbamoyl}amino)-1H-pyrazolo[4,3-c]pyridin-3-yl]-1,2,3-thiadiazole-5-carboxamide] | 1.1
C[C@@H](NC(=O)Nc1cc2[nH]nc(NC(=O)C3CCC3)c2cn1)c1ccccc1 [Example 201, N-[6-({[(1R)-1-phenylethyl]-carbamoyl}amino)-1H-pyrazolo[4,3-c]pyridin-3-yl]-cyclobutane-carboxamide] | 0.5
C[C@@H](NC(=O)Nc1cc2[nH]nc(NC(=O)CC3CCCCC3)c2cn1)c1ccccc1 [Example 203, 2-cyclohexyl-N-[6-({[(1R)-1-phenylethyl]-carbamoyl}amino)-1H-pyrazolo[4,3-c]pyridin-3-yl]-acetamide] | 3.6
C[C@@H](NC(=O)Nc1cc2[nH]nc(NC(=O)C3CCCCC3)c2cn1)c1ccccc1 [Example 204, N-[6-({[(1R)-1-phenylethyl]-carbamoyl}amino)-1H-pyrazolo[4,3-c]pyridin-3-yl]-cyclohexane-carboxamide] | 5.9
C[C@@H](NC(=O)Nc1cc2[nH]nc(NC(=O)C3CCCC3)c2cn1)c1ccccc1 [Example 205, N-[6-({[(1R)-1-phenylethyl]-carbamoyl}amino)-1H-pyrazolo[4,3-c]pyridin-3-yl]-cyclopentane-carboxamide] | 1.2

Further molecules by falling IC50, results first:

IC50 [nM] | Compound
79.8 | CC(CS(C)(=O)=O)Nc1n[nH]c2cc(NC(=O)N[C@H](C)c3ccccc3)ncc12 (stereo partly drawn) [Example 192, 1-(3-{[1-methyl-2-(methylsulfonyl)-ethyl]amino}-1H-pyrazolo[4,3-c]-pyridin-6-yl)-3-[(1R)-1-phenylethyl]urea]
3.1 | CC(CCl)Nc1n[nH]c2cc(NC(=O)N[C@H](C)c3ccccc3)ncc12 (stereo partly drawn) [Example 197, 1-{3-[(2-chloro-1-methylethyl)amino]-1H-pyrazolo[4,3-c]pyridin-6-yl}-3-[(1R)-1-phenylethyl]urea]
1.1 | C[C@@H](NC(=O)Nc1cc2[nH]nc(NC(=O)CC(F)(F)F)c2cn1)c1ccccc1 [Example 199, 3,3,3-trifluoro-N-[6-({[(1R)-1-phenylethyl]-carbamoyl}amino)-1H-pyrazolo[4,3-c]-pyridin-3-yl]-propanamide]
0.6 | C[C@@H](NC(=O)Nc1cc2[nH]nc(NC(=O)Cc3ccccc3)c2cn1)c1ccccc1 [Example 202, 2-phenyl-N-[6-({[(1R)-1-phenylethyl]-carbamoyl}amino)-1H-pyrazolo[4,3-c]pyridin-3-yl]-acetamide]
0.5 | C[C@@H](NC(=O)Nc1cc2[nH]nc(NC(=O)Cc3ccc(F)cc3)c2cn1)c1ccccc1 [Example 206, 2-(4-fluorophenyl)-N-[6-({[(1R)-1-phenylethyl]-carbamoyl}amino)-1H-pyrazolo[4,3-c]pyridin-3-yl]-acetamide]
